This assay concerns the target T1, SIRT1 (Homo sapiens, UniProt Q96EB6).
T1 sequence (Q96EB6 1-747): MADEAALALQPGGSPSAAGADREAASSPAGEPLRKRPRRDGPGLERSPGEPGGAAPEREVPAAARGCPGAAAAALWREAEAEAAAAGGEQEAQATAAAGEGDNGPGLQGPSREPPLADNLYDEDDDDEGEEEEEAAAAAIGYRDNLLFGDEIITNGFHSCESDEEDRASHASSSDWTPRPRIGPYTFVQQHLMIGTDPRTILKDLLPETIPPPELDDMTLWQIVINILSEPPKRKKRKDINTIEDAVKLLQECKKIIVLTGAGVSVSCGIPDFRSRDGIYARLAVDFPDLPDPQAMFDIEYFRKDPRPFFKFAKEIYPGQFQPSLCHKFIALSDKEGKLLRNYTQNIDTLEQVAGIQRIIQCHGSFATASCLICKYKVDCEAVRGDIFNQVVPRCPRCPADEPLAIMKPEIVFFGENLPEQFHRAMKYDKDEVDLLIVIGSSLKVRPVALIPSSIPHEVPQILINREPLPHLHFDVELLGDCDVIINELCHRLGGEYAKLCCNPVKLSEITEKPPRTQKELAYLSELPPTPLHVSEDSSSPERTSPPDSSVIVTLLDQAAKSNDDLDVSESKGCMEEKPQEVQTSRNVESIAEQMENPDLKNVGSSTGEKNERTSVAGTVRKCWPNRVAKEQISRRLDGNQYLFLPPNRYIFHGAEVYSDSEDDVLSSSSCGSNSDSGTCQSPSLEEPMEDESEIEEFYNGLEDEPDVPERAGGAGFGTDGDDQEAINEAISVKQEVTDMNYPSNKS
As to the kind of experiment: Trp mass spectrometry assay of SIRT1 activation (Ac-R-H-K-K(Ac)-W-NH2 peptide). The following applies: Trp peptide 0.5 μM, 120 μM βNAD+, 10 nM SIRT1, 25 min at 25° C.; for Emax: 25 min, relative to control (100%), read-out: TRP MAX RESP (percent maximum fold activation). Format: biochemical. Put shortly: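 N-terminal His-tagged human SIRT1, expressed in BL21(DE3) and purified, was incubated 25 min with an acetylated Trp peptide and NAD plus test compound at varying concentrations, then quenched with formic acid. OAADPR or deacetylated peptide was quantified by mass spectrometry versus compound-free control; EC1.5 is the concentration giving 50% activity increase, with percent maximum activation.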

Each structure is given as a SMILES string.

Take `C[C@H](O)CNC(=O)c1ccc2c(n1)N(C(=O)Nc1ccccn1)[C@H]1CCN2C1` [Example 211, (4S)—N7-((S)-2-hydroxypropyl)-N5-(pyridin-2-yl)-3,4-dihydro-1,4-methanopyrido[2,3-b][1,4]diazepine-5,7(2H)-dicarboxamide]: the Emax was over 150% and the “TRP Activity (EC1.5, concentration of test compound that results in 150% activation of SIRT1)” value is recorded as “B (EC1.5 1-25 μM)”.

On to `NCC(NC(=O)c1ccc2c(n1)N(C(=O)Nc1ccccn1)[C@H]1CCN2C1)C(F)(F)F` (single isomer, unassigned) [Example 223], for which the Emax is over 150% and the “TRP Activity (EC1.5, concentration of test compound that results in 150% activation of SIRT1)” value was “B (EC1.5 1-25 μM)”.

Take `O=C(NCC(F)(F)CO)c1ccc2c(n1)N(C(=O)Nc1ccccn1)[C@H]1CCN2C1` [Example 117, (4S)—N7-(2,2-difluoro-3-hydroxypropyl)-N5-(pyridin-2-yl)-3,4-dihydro-1,4-methanopyrido[2,3-b][1,4]diazepine-5,7(2H)-dicarboxamide]: the Emax is over 150% and the “TRP Activity (EC1.5, concentration of test compound that results in 150% activation of SIRT1)” value was “A (EC1.5<1 μM)”.

For the molecule `CC#CCNC(=O)c1ccc2c(n1)N(C(=O)Nc1ccccn1)[C@H]1CCN2C1` [Example 109, (4S)—N7-(but-2-yn-1-yl)-N5-(pyridin-2-yl)-3,4-dihydro-1,4-methanopyrido[2,3-b][1,4]diazepine-5,7(2H)-dicarboxamide], the Emax is over 150% and the “TRP Activity (EC1.5, concentration of test compound that results in 150% activation of SIRT1)” value is reported as “A (EC1.5<1 μM)”.

For `O=C(N[C@H](C1CC1)C(F)(F)F)c1ccc2c(n1)N(C(=O)Nc1cc(OC[C@H](O)CO)ccn1)[C@H]1CCN2C1` [Example 88, (4S)—N7-((R)-1-cyclopropyl-2,2,2-trifluoroethyl)-N5-(4-((R)-2,3-dihydroxypropoxy)pyridin-2-yl)-3,4-dihydro-1,4-methanopyrido[2,3-b][1,4]diazepine-5,7(2H)-dicarboxamide], the Emax was over 150% and the “TRP Activity (EC1.5, concentration of test compound that results in 150% activation of SIRT1)” value is “A (EC1.5<1 μM)”.

As for `NC[C@H](NC(=O)c1ccc2c(n1)N(C(=O)Nc1ccccn1)[C@H]1CCN2C1)C(F)(F)F` (single isomer, unassigned) [Example 50], the Emax is over 150% and the “TRP Activity (EC1.5, concentration of test compound that results in 150% activation of SIRT1)” value was “A (EC1.5<1 μM)”.

With `C[C@@H](NC(=O)c1ccc2c(n1)N(C(=O)Nc1ccc(OC[C@H](O)CO)cn1)[C@H]1CCN2C1)C(F)(F)F` [Example 149, (4S)—N5-(5-((R)-2,3-dihydroxypropoxy)pyridin-2-yl)-N7-((R)-1,1,1-trifluoropropan-2-yl)-3,4-dihydro-1,4-methanopyrido[2,3-b][1,4]diazepine-5,7(2H)-dicarboxamide], the Emax was over 150% and the “TRP Activity (EC1.5, concentration of test compound that results in 150% activation of SIRT1)” value is “A (EC1.5<1 μM)”.

Regarding `O=C(O)CNC(=O)c1ccc2c(n1)N(C(=O)Nc1ccccn1)[C@H]1CCN2C1` [Example 14, 2-((4S)-5-(pyridin-2-ylcarbamoyl)-2,3,4,5-tetrahydro-1,4 methanopyrido[2,3-b][1,4]diazepine-7-carboxamido)acetic acid], the Emax is under 150% and the “TRP Activity (EC1.5, concentration of test compound that results in 150% activation of SIRT1)” value is recorded as “C (EC1.5>25 μM)”.

As to `Cn1cccc(NC(=O)N2c3nc(C(=O)NC4CC4)ccc3N3CC[C@H]2C3)c1=O` [Example 216, (4S)—N7-cyclopropyl-N5-(1-methyl-2-oxo-1,2-dihydropyridin-3-yl)-3,4-dihydro-1,4-methanopyrido[2,3-b][1,4]diazepine-5,7(2H)-dicarboxamide], the Emax is over 150% and the “TRP Activity (EC1.5, concentration of test compound that results in 150% activation of SIRT1)” value is given as “B (EC1.5 1-25 μM)”.

For the origin of these results see patent publication US10072011B2, “Substituted bridged urea analogs as sirtuin modulators” (GlaxoSmithKline Intellectual Property (No.2) Limited, priority 2014, dated 2018).
